Values after ≈ are worked out from the molar mass of the structure shown. Where two headings read alike, the source gives them in different places.
What was measured:
Eco MG1655 ∆tolC (EN243) = assay: MIC, efflux-defective parental strain EN243; type: cell-based, E. coli; settings: Escherichia coli, MG1655, read-out: MIC EN243
Procedure: (§1) Minimum inhibitory concentration (MIC) values were determined according to the Clinical Laboratory Standards Institute guidelines. Frequency of resistance was determined by plating ~5 × 10^8 bacterial cells on agar-solidified media plates containing test compound at concentrations corresponding to four times the measured solid-media MIC of the strains. Colonies were counted after 24 h, restreaked onto media containing the same concentration of compound, and the MIC remeasured against the assayed compound. Genomic DNA from isolated clones was sequenced by paired-end sequencing on an Illumina MiSeq device. Complete experimental details available in SI Appendix. […]
Minimum inhibitory concentration (MIC) determination. Broth microdilution and agar dilution
MIC assays were conducted according to CLSI guidelines (M07-2012). Appropriate inoculation
suspension density was assessed using a Sensititre Nephelometer with a Sensititre 0.5
(§2) McFarland Standard. […]

[1] = tested on: lpxH mutants of EN243 (Eco MG1655 ∆tolC); assay: MIC, lpxH mutants with reduced susceptibility in efflux-defective E. coli background; type: cell-based; settings: Escherichia coli
Procedure: as §1
Minimum inhibitory concentration (MIC) determination. Broth microdilution and agar dilution MIC assays were conducted according to CLSI guidelines (M07-2012). Appropriate inoculation suspension density was assessed using a Sensititre Nephelometer with a Sensititre 0.5 […]
as §2
Frequency of Resistance. Frequency of resistance was assessed by spread plating between […] cfu of a freshly-grown culture of the strain of interest on plates containing a concentration of compound corresponding to 4 times the MIC of the strain (as determined by agar-dilution MIC). Serial dilutions of the same cultures were plated on non-selective media to determine the number of cells plated. The frequency of resistance was determined by dividing the number of colonies obtained on the selective plates after 24 hours of growth by the calculated total population plated. Typically 4 independently grown cultures were used to initiate 4 separate experiments, and the total combined number of obtained colonies and plated populations were used for calculations. Isolated colonies from selection plates were re-streaked on an additional plate containing the same concentration of compound used in the original selection. Clones were saved at -80 °C for subsequent analysis.
Whole-genome sequencing and data analysis. Genomic DNA of selected clones was prepared using an Epicentre MasterPure Complete DNA Purification Kit. Whole-genome sequencing libraries were prepared using an Illumina Nextera XT Library Preparation Kit. The libraries were sequenced using an Illumina MiSeq device with a V3 600-cycle reagent kit. Whole-genome sequencing data was analyzed using CLC Genomics Workbench Version 11. […]

[2] = Metabolic stability in human liver microsomes; type: in vitro ADME; settings: pH 7.4
Procedure: (§3) Thermodynamic solubility was assessed by dissolving 2 to 3 mg of test compound to equilibrium in 100 mM KPO4-buffer, pH 7.4. The metabolic stability assay was performed in the presence of human and mouse liver microsomes by measurement of test compounds disappearance over time (60 min). The plasma protein binding assay, including stability estimation, was performed using the RED devices (Thermo Fisher Scientific) in the presence of human and mouse plasma. All samples from the in vitro ADME studies were quantified by liquid chromatography-triple quadrupole mass spectrometry (LC–MS/MS). The assays were performed as previously described ([36]) and the details are available in SI Appendix. Cytotoxicity was assessed by incubation of test compounds in the presence of HepG2 cells for 72 h as previously described ([37]). […]
(§4) The plate is then sealed, centrifuged and the supernatant is analysed by liquid
chromatography coupled to triple quadrupole mass spectrometry (LC-MS/MS).
Metabolic stability in the presence of human and animal liver microsomes. Metabolic stability
was determined in 0.5 mg/ml human or animal liver microsomes at a compound concentration
of 1 μM in 100 mM KPO4 buffer pH 7.4 in a total incubation volume of 500 μl. The reaction was
initiated by addition of 1 mM NADPH. At various incubation times, i.e. at 0, 5, 10, 20, 40 and 60
min, a sample was withdrawn from the incubation and the reaction was terminated by addition
of cold acetonitrile with warfarin as an internal standard. […]
(§5) Liquid chromatography coupled to triple quadrupole mass spectrometry (LC-MS/MS). The test
(§6) compounds were optimized on a Waters Acquity UPLC XEVO TQ-S micro system (Waters Corp.)
(§7) operating in multiple reaction monitoring (MRM) mode with positive or negative electrospray
(§8) ionization. Compounds were optimized by using the QuanOptimize software (Waters Corp.).
(§9) For chromatographic separation, a C18 BEH 1.7 µm column was used, with a general gradient of
(§10) 1% to 90% of mobile phase B over a total running time of 2 min. Mobile phase A consisted of
(§11) 5% acetonitrile and 0.1% formic acid in purified water, and mobile phase B of 0.1% formic acid
(§12) in 100% acetonitrile. The flow rate was set to 0.5 ml/min and 5 µL of the sample was injected.

Thermodynamic solubility = type: physicochemical; settings: 37 °C, aqueous buffer, thermodynamic from solid; 100 mM KPO4-buffer, pH 7.4
Procedure: as §3, §4
chromatography coupled to triple quadrupole mass spectrometry (LC-MS/MS). […]
Thermodynamic solubility. Thermodynamic solubility assay utilized solid form of a test
compound. Solid test compound (~2-3 mg) was weighed in a glass HPLC vial and 100 mM KPO4-
buffer, pH 7.4 was added to give a theoretical max concentration if everything is dissolved of ~5-
6 mg/ml. The vial was incubated at 900 rpm, 37 °C in a rotational shaker for 24h. After the
incubation an aliquot (200 µl) was transferred to a glass insert and centrifuged at 10 000xg, 37 °C
for 20 min to separate any solid material from the solution. The supernatant was transferred to
a new HPLC vial and analysed by liquid chromatography coupled to triple quadrupole mass
as §5, §6, §7, §8, §9, §10, §11, §12

| Structure (SMILES) | MIC (Eco MG1655 ∆tolC (EN243)) [µg/mL] | MIC ([1]; MG1655, read-out: MIC CH6045) [µg/mL] | MIC ([1]; MG1655, read-out: MIC CH6047) [µg/mL] | MIC ([1]; MG1655, read-out: MIC CH6048) [µg/mL] | MIC ([1]; MG1655, read-out: MIC CH6051) [µg/mL] | MIC ([1]; MG1655, read-out: MIC CH7010) [µg/mL] | MIC ([1]; MG1655, read-out: MIC CH7011) [µg/mL] | MIC ([1]; MG1655, read-out: MIC CH7012) [µg/mL] | MIC ([1]; MG1655, read-out: MIC CH7013) [µg/mL] | MIC ([1]; MG1655, read-out: MIC CH7015) [µg/mL] | MIC ([1]; MG1655, read-out: MIC CH7016) [µg/mL] | MIC ([1]; MG1655, read-out: MIC CH8845) [µg/mL] | MIC ([1]; MG1655, read-out: MIC CH8846) [µg/mL] | MIC ([1]; MG1655, read-out: MIC CH8847) [µg/mL] | MIC ([1]; MG1655, read-out: MIC CH8848) [µg/mL] | MIC ([1]; MG1655, read-out: MIC CH8850) [µg/mL] | MIC ([1]; MG1655, read-out: MIC CH8851) [µg/mL] | MIC ([1]; MG1655, read-out: MIC CH8853) [µg/mL] | microsomal CLint at 1 µM [2] [µL/min/mg] | solubility thermodynamic at 24 h (Thermodynamic solubility) [µM] | also measured |
| --- | --- | --- | --- | --- | --- | --- | --- | --- | --- | --- | --- | --- | --- | --- | --- | --- | --- | --- | --- | --- | --- |
| CC(=O)N1CCc2cc(S(=O)(=O)N3CCN(c4cccc(C(F)(F)F)c4)CC3)ccc21 [AZ1, reference compound] | 0.125 (≈ 0.276 µM) | 2 (≈ 4.41 µM) | > 64 | 0.5 (≈ 1.1 µM) | > 64 | 2 (≈ 4.41 µM) | 2 (≈ 4.41 µM) | 4 (≈ 8.82 µM) | 64 (≈ 141 µM) | > 64 | 2 (≈ 4.41 µM) | 2 (≈ 4.41 µM) | 2 (≈ 4.41 µM) | > 64 | 4 (≈ 8.82 µM) | 2 (≈ 4.41 µM) | 1 (≈ 2.21 µM) | 2 (≈ 4.41 µM) | – | – | MIC ([1]; MG1655, read-out: MIC CH8854): 2 µg/mL (≈ 4.41 µM); MIC ([1]; MG1655, read-out: MIC CH8855): > 64 µg/mL; MIC ([1]; MG1655, read-out: MIC CH8856): > 64 µg/mL; MIC ([1]; MG1655, read-out: MIC CH8868): > 64 µg/mL; MIC ([1]; MG1655, read-out: MIC CH8869): 0.125 µg/mL (≈ 0.276 µM); MIC ([1]; MG1655, read-out: MIC CH8870): > 64 µg/mL; MIC ([1]; MG1655, read-out: MIC CH8871): > 64 µg/mL |
| CN(c1ccccc1C(=O)Nc1ccc(S(=O)(=O)N2CCN(c3cccc(C(F)(F)F)c3)CC2)cc1)S(C)(=O)=O [JEDI-1444] | 0.016 (≈ 0.0268 µM) | 0.25 (≈ 0.419 µM) | 1 (≈ 1.68 µM) | 0.064 (≈ 0.107 µM) | > 2 | 0.064 (≈ 0.107 µM) | 0.25 (≈ 0.419 µM) | 0.064 (≈ 0.107 µM) | 0.125 (≈ 0.21 µM) | 0.064 (≈ 0.107 µM) | 0.125 (≈ 0.21 µM) | 1 (≈ 1.68 µM) | 0.25 (≈ 0.419 µM) | > 2 | 0.5 (≈ 0.838 µM) | 0.5 (≈ 0.838 µM) | 0.25 (≈ 0.419 µM) | 0.25 (≈ 0.419 µM) | 209 | 0.21 (≈ 0.125 µg/mL) | MIC ([1]; MG1655, read-out: MIC CH8854): 0.25 µg/mL (≈ 0.419 µM); MIC ([1]; MG1655, read-out: MIC CH8855): > 2 µg/mL; MIC ([1]; MG1655, read-out: MIC CH8856): > 2 µg/mL; MIC ([1]; MG1655, read-out: MIC CH8868): 2 µg/mL (≈ 3.35 µM); MIC ([1]; MG1655, read-out: MIC CH8869): 0.064 µg/mL (≈ 0.107 µM); MIC ([1]; MG1655, read-out: MIC CH8870): 0.25 µg/mL (≈ 0.419 µM); MIC ([1]; MG1655, read-out: MIC CH8871): 2 µg/mL (≈ 3.35 µM) |
| Cc1cc(C#N)nc(N2CCN(S(=O)(=O)c3ccc(NC(=O)c4ccccc4N(C)S(C)(=O)=O)cc3)CC2)n1 [EBL-3339] | – | – | – | – | – | – | – | – | – | – | – | – | – | – | – | – | – | – | 551 | 1.2 (≈ 0.684 µg/mL) | – |
| CN(c1ccccc1C(=O)Nc1ccc(S(=O)(=O)N2CCCCC2)cc1)S(C)(=O)=O [JEDI-852] | 4 (≈ 8.86 µM) | 64 (≈ 142 µM) | > 64 | 32 (≈ 70.9 µM) | > 64 | 2 (≈ 4.43 µM) | 16 (≈ 35.4 µM) | 16 (≈ 35.4 µM) | > 64 | 32 (≈ 70.9 µM) | 16 (≈ 35.4 µM) | 32 (≈ 70.9 µM) | 32 (≈ 70.9 µM) | > 64 | > 64 | > 64 | 8 (≈ 17.7 µM) | > 64 | – | – | MIC ([1]; MG1655, read-out: MIC CH8854): > 64 µg/mL; MIC ([1]; MG1655, read-out: MIC CH8855): > 64 µg/mL; MIC ([1]; MG1655, read-out: MIC CH8856): > 64 µg/mL; MIC ([1]; MG1655, read-out: MIC CH8868): > 64 µg/mL; MIC ([1]; MG1655, read-out: MIC CH8869): 4 µg/mL (≈ 8.86 µM); MIC ([1]; MG1655, read-out: MIC CH8870): 32 µg/mL (≈ 70.9 µM); MIC ([1]; MG1655, read-out: MIC CH8871): > 64 µg/mL |
| CN(c1ccc(CNCCN)cc1C(=O)Nc1ccc(S(=O)(=O)N2CCN(c3cc(Cl)cc(Cl)c3)CC2)cc1)S(C)(=O)=O [EBL-3025] | – | – | – | – | – | – | – | – | – | – | – | – | – | – | – | – | – | – | 42.2 | 4 (≈ 2.68 µg/mL) | – |
| Cc1cc(C#N)nc(N2CCN(S(=O)(=O)c3ccc(NC(=O)c4cc(CN5CC(CN)C5)ccc4N(C)S(C)(=O)=O)cc3)CC2)n1 [EBL-3647] | – | – | – | – | – | – | – | – | – | – | – | – | – | – | – | – | – | – | 3.1 | 1090 (≈ 728 µg/mL) | – |
| Cc1cc(C#N)nc(N2CCN(S(=O)(=O)c3ccc(NC(=O)c4cc(CNCCCN)ccc4N(C)S(C)(=O)=O)cc3)CC2)n1.Cl.Cl [EBL-3599] | – | – | – | – | – | – | – | – | – | – | – | – | – | – | – | – | – | – | < 5 | 1530 | – |

— publication PMC11009625, “Antibiotic class with potent in vivo activity targeting lipopolysaccharide synthesis in Gram-negative bacteria” (Proceedings of the National Academy of Sciences of the …, 2024)
